Results from PMC5075766, “Antiplasmodial Activity Is an Ancient and Conserved Feature of Tick Defensins” (Frontiers in Microbiology, 2016).
Like-named read-outs stand apart in the source and are kept apart here. Positions of bridges follow the written chain, without caps; N, C: chain ends. Residues, ends and D or L forms follow the SMILES beside them.

System: blood stages of P. falciparum
Format: cell-based, Plasmodium falciparum
Details: 48 h, starting parasitemia 0.5%, haematocrit 1%, SYBR Green I flow cytometry
Protocol: The growth inhibition assay was described in detail in [Fréville et al. (2013)]. Briefly, assays were carried out in 96-well plates with a starting parasitemia of 0.5% at a haematocrit of 1% using SYBR Green I ([Kelly et al., 2009]). The peptides were added to the culture at different concentrations ranging from 6.25 μM to 50 μM (final concentrations) in a volume of 250 μl of RPMI-AlbuMAX (0.5%) and incubated for an additional 48 h to allow all stages to complete one cycle. Cultures were stained for 30 min in the dark with SYBR Green I 1X (Invitrogen) diluted in 20 mM Tris pH8.8, 138 mM NaCl, and fixed with 1% paraformaldehyde. Fixed parasited red blood cells (RBC) were stored at 4°C in the dark until flow cytometry analysis. Parasite growth was assessed by flow cytometry on a BD FACSCantoII (BD Biosciences). Cell pairs were excluded from the analysis using a forward scatter (FSC)-width versus FSC-area dot plot. […] Fluorescence analysis (Green fluorescence) was performed using BD FACSDiva software (version 6.1.3, BD Biosciences) on a total of 200,000 acquired events. Fluorescence was observed as described by [Izumiyama et al. (2009)] on a two-parameter dot plot (Green fluoresecence-FSC). Fluorescence of non-infected RBC was adjusted to plot between […]. Results are expressed as the percentage of growth inhibition. […]

CC[C@H](C)[C@H](NC(=O)[C@@H]1CSSC[C@@H]2NC(=O)[C@H](Cc3c[nH]cn3)NC(=O)[C@H](CCCNC(=N)N)NC(=O)[C@H](CC(=O)O)NC(=O)[C@@H]3CSSC[C@H](NC(=O)[C@H]([C@@H](C)O)NC(=O)[C@H](CC(C)C)NC(=O)[C@H](CCCCN)NC(=O)[C@H](Cc4c[nH]c5ccccc45)NC(=O)[C@H](CCCNC(=N)N)NC(=O)CNC(=O)CNC(=O)[C@H](CSSC[C@H](NC(=O)[C@H](Cc4ccccc4)NC(=O)[C@H](Cc4ccccc4)NC(=O)CN)C(=O)N4CCC[C@H]4C(=O)N[C@@H](Cc4ccc(O)cc4)C(=O)N[C@@H](CC(N)=O)C(=O)NCC(=O)N[C@@H](Cc4ccc(O)cc4)C(=O)N3)NC(=O)[C@H](Cc3ccc(O)cc3)NC(=O)CNC(=O)CNC(=O)[C@H](CCCNC(=N)N)NC(=O)[C@H](CCCNC(=N)N)NC(=O)[C@H](CCCNC(=N)N)NC(=O)[C@H](CC(C)C)NC(=O)[C@H](CCCCN)NC(=O)[C@H](CCCCN)NC(=O)[C@H](CCCNC(=N)N)NC2=O)C(=O)N[C@@H]([C@@H](C)CC)C(=O)N1)C(=O)N[C@@H](CCSC)C(=O)N[C@@H](CC(N)=O)C(=O)O [DefMT5] (H-GFFCPYNGYCDRHCRKKLRRRGGYCGGRWKLTCICIMN-OH; disulfide 4-25, 10-33, 14-35; N-terminus assumed)
P. falciparum growth inhibition (6.25 μM peptide): 20%
P. falciparum growth inhibition (50 μM peptide (highest concentration tested)): ~100%
